Consider seven molecules from US10208000B2, “Eis inhibitors” (priority 2015, dated 2019).

Where only a bound is given, the exact number is not on record here.

Assay [1] deals with Eis_Mtb acetyltransferase (Mycobacterium tuberculosis (strain ATCC 25618 / H37Rv), UniProt P9WFK7). Format: biochemical. Particulars: library compounds 20 μM.
The next assay deals with Mtb K204. The format is cell-based, Mycobacterium tuberculosis.
In assay [2] the target is T1, purified Eis (Mycobacterium tuberculosis (strain ATCC 25618 / H37Rv), UniProt P9WFK7). The format is biochemical.
The target of assay [3] is T2, AAC(2′)-Ic (Mycobacterium tuberculosis (strain ATCC 25618 / H37Rv), UniProt P9WQG9). Briefly: biochemical. The arrangement: species or system Mtb.
In assay [4] the target is T3, AAC(6′)-Ie/APH(2″)-Ia (Staphylococcus aureus, UniProt P0A0C1). Briefly: Inhibitor selectivity, sulfonamides. The format is biochemical. Particulars: concentrations as high as 200 μM. As for the experimental part: (§1) To examine the selectivity of our two best inhibitors (39 and 46) towards Eis, next these two compounds were tested against three other AAC enzymes: AAC(2′)-Ic from Mtb (17, 18), AAC(3)-IV from E. coli (19, 20), and AAC(6′)-Ie/APH(2″)-Ia from Staphylococcus aureus (21, 22).
(§2) The conditions utilized for determination of IC50 values were also used here under the optimum conditions for each enzyme. […] AAC(6′)-Ie/APH(2″)-Ia experiments were incubated at 37° C. All other methods and concentrations are the same as for the experiments with Eis_Mtb.

The test system of assay [5] is AAC(3)-IV. Briefly: Inhibitor selectivity, sulfonamides. Conditions: concentrations as high as 200 μM. The format is biochemical, E. coli. On the procedure: as §1, §2
The subject of the next assay is Mtb H37Rv. Nature of the assay: Mycobacterial MIC determination by alamar blue, KAN with sulfonamides. The format is cell-based, Mycobacterium tuberculosis. Particulars: anti-TB activity of KAN against Mtb H37Rv with compound; KAN line = KAN alone.
The target in assay [6] is T3, AAC(6′)-Ie/APH(2″)-Ia. Briefly: Inhibitor selectivity, sulfonyl isothiazoles. Conditions: optimal reaction conditions for the enzyme. The format is biochemical.
In assay [7] the target is T1, purified Eis. Conditions: read-out: IC50 (μM) in the Eis acetyltransferase assay.
Assay [8] deals with T2, AAC(2′)-Ic.
Description: The conditions described above for determination of IC50 values were used under the optimum conditions for each enzyme. […] AAC(6′)/APH(2″) experiments were incubated at 37° C. while AAC(3)-IV and AAC(2′)-Ic experiments were incubated at 25° C. All other methods and concentrations remained identical to those for the experiments with Eis.
A further assay deals with K204 Mtb. Format: cell-based, Mycobacterium tuberculosis. Particulars: KAN MIC in presence of compound at concentration tested (100x IC50 or 20 μM); KAN line = absence of compound.
Assay [9] relates to AAC(3)-IV. Nature of the assay: Inhibitor selectivity, sulfonyl isothiazoles. Format: biochemical, E. coli. Conditions: optimal reaction conditions for the enzyme.
A further assay has as its system H37Rv Mtb. Briefly: Mycobacterial MIC determination by alamar blue assay, KAN with sulfonyl isothiazoles. The format is cell-based, Mycobacterium tuberculosis. Conditions: KAN MIC in presence of compound at concentration tested (100x IC50 or 20 μM); KAN line = absence of compound. (Alamar Blue is a resazurin reagent that responds to reducing activity.)

`CN(c1ccc(Br)cc1)S(=O)(=O)c1ccc2[nH]c(=O)c(=O)[nH]c2c1` [Compound 29]: the “Eis inhibition in the HTS” value in [1] is recorded as “identified as hits”. In addition, the “reduction of KAN MIC value compared to KAN alone” value in the assay on Mtb K204 (K204 Mtb) is listed as “four-fold”.

On to `CN(c1ccccc1)S(=O)(=O)c1ccc2[nH]c(=O)c(=O)[nH]c2c1` [Compound 33], for which the “decrease in Eis inhibitory activity compared to lead 29” value on purified Eis [2] is recorded as 70 fold.

Take `CC(C)c1ccc(N(C)S(=O)(=O)c2ccc3[nH]c(=O)c(=O)[nH]c3c2)cc1` [Compound 35]: the “K204 MICKAN” value with Mtb K204 (anti-TB activity of KAN against Mtb K204 with compound, KAN line = KAN alone) was found to be 2.5 µg/mL.

The inhibition is the drop in the measured response relative to a control, in per cent. Take `COc1cccc(N(C)S(=O)(=O)c2ccc3[nH]c(=O)c(=O)[nH]c3c2)c1` [Compound 39]: the inhibition at 200 µM at AAC(2′)-Ic [3] (read-out: inhibition of AAC(2′)-Ic activity) is 15%. Further, the “inhibition of KAN acetylation by AAC(6′)-Ie/APH(2″)-Ia” value on AAC(6′)-Ie/APH(2″)-Ia [4] is recorded as “did not inhibit”. Also, the “inhibition of KAN acetylation by AAC(3)-IV” value in the assay on AAC(3)-IV [5] is “did not inhibit”.

Consider `CN(c1ccc2ccccc2c1)S(=O)(=O)c1ccc2[nH]c(=O)c(=O)[nH]c2c1` [Compound 46], for which the “inhibition of KAN acetylation by AAC(2′)-Ic” value on AAC(2′)-Ic [3] was “did not inhibit”. Moreover, the “inhibition of KAN acetylation by AAC(6′)-Ie/APH(2″)-Ia” value on AAC(6′)-Ie/APH(2″)-Ia [4] is “did not inhibit”. Moreover, the “inhibition of KAN acetylation by AAC(3)-IV” value with AAC(3)-IV [5] is “did not inhibit”. The “H37Rv MICKAN” value with Mtb H37Rv is no more than 1.25 µg/mL.

The term IC50 denotes the point on the concentration scale where inhibition reaches its midpoint. As for `CC1=C(c2ccc(F)cc2)S(=O)(=O)N=C1N1CCC(N2CCCCC2)CC1` [Compound 46b], on AAC(6′)-Ie/APH(2″)-Ia [6], the “inhibition of AAC(6′)-Ie/APH(2″)-Ia” value is on record as “no inhibition”. Moreover, the IC50 at purified Eis [7] turned out to be 0.092 ± 0.021 µM. Further, the “inhibition of AAC(2′)-Ic” value on AAC(2′)-Ic [8] is “no inhibition”. The “K204 MICKAN” value with K204 Mtb turned out to be 5 µg/mL. Besides, in the assay with AAC(3)-IV [9], the “inhibition of AAC(3)-IV” value was “no inhibition”. In addition, the “H37Rv MICKAN” value in the assay with H37Rv Mtb fell in the range of 0.625 to 1.25 µg/mL.

Take `CC1=C(c2ccc(Cl)cc2)S(=O)(=O)N=C1N1CCC(N2CCCCC2)CC1` [Compound 46c]: the “inhibition of AAC(6′)-Ie/APH(2″)-Ia” value at AAC(6′)-Ie/APH(2″)-Ia [6] is listed as “no inhibition”. The “inhibition of AAC(2′)-Ic” value at AAC(2′)-Ic [8] is reported as “no inhibition”. For the same molecule, in the assay with K204 Mtb, the “K204 MICKAN” value came out at 2.5 µg/mL. Moreover, in the assay with AAC(3)-IV [9], the “inhibition of AAC(3)-IV” value is given as “no inhibition”. Moreover, the “H37Rv MICKAN” value with H37Rv Mtb came out at 0.625 µg/mL.
